What all share (test): growth of human tumour cells (NCI), 48 h
Experiment [1] concerns TK-10.
Experiment [2] has as its system U-251.
Experiment [3] has as its system SN12C.
Experiment [4] has as its system OVCAR-3.
Experiment [5] has as its system SR.
Experiment [6] has as its system IGROV-1.
In experiment [7] the test system is MDA-MB-231.
The test system of experiment [8] is CCRF-CEM.
For experiment [9], the system named is Hs-578T.
Experiment [10] relates to HCT-116.
Experiment [11] concerns A549.
For experiment [12], the system named is OVCAR-5.
Experiment [13] has as its system Malme-3M.
For experiment [14], the system named is SF-539.
The test system of experiment [15] is EKVX.
Experiment [16] has as its system UACC-62.
Experiment [17] has as its system HOP-62.
For experiment [18], the system named is SW-620.
Experiment [19] has as its system HOP-92.
Experiment [20] relates to MDA-MB-435.

The source of these data is ChEMBL document CHEMBL1201862, “PubChem BioAssay data set” (2004).

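Protocol summary: plate cells (96-well), add compound at 5 concentrations, incubate 48 h, interpolate endpoints linearly. GI50: concentration for 50% inhibition of growth.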 Calls of active or inactive are those of the source. No stated cut-off is given here; in the data, active = GI50 up to about 1.1 µM and inactive = higher.

Consider `CN1C(=O)C(=CNc2ccccc2[N+](=O)[O-])C(=O)N(C)C1=O`, for which the GI50 in experiment [1], in experiment [2], in experiment [3], in experiment [4], in experiment [5] and in [6] was > 100 µM (inactive) each time. Further, the GI50 in experiment [7], in experiment [8], in [9], in [10], in experiment [11] and in experiment [12] was > 100 µM (inactive) throughout. The GI50 in experiment [13], in experiment [14], in experiment [15], in experiment [16], in experiment [17] and in experiment [18] was > 100 µM (inactive) throughout. In addition, the GI50 in experiment [19] and in experiment [20] was > 100 µM (inactive) throughout.

For the molecule `CC(C)=C[C@@H]1C[C@H](n2cc(C)c(=O)[nH]c2=O)ON1CCO`, the GI50 in experiment [1], in [2], in [3], in [4], in [5] and in [6] was > 100 µM (inactive) throughout. Besides, the GI50 in [7], in experiment [8], in [9], in [10], in [11] and in experiment [12] was > 100 µM (inactive) throughout. Moreover, the GI50 in [13], in experiment [14], in [15], in experiment [16], in [17] and in experiment [18] was > 100 µM (inactive) throughout. The GI50 in [19] and in experiment [20] was > 100 µM (inactive) throughout.

As to `O=C1C(Cl)C(c2cc3cc(Br)ccc3nc2Cl)N1c1ccc(F)c(Cl)c1` (stereo not given), the GI50 in experiment [1] is 6.32 µM (inactive); in [2], 2.77 µM (inactive); in experiment [3] it was 7.73 µM (inactive); in [4], 4.13 µM (inactive); in experiment [5], 1.03 µM (active); in experiment [6], 0.957 µM (active). The GI50 was 8.09 µM (inactive) in experiment [7]; 0.418 µM (active) in experiment [8]; 20.1 µM (inactive) in experiment [9]; 7.94 µM (inactive) in [10]; 12.6 µM (inactive) in experiment [11]; 12 µM (inactive) in experiment [12]. Further, the GI50 was 11 µM (inactive) in experiment [13]; 1.51 µM (inactive) in experiment [14]; 1.42 µM (inactive) in [15]; 9.12 µM (inactive) in experiment [16]; 1.76 µM (inactive) in experiment [17]; 5.98 µM (inactive) in experiment [18]. For the same molecule, the results for the GI50 in [19] and in [20] were 1.31 µM (inactive) and 5.64 µM (inactive), respectively.

As to `O=C(O)CO/N=C1/C(=C2/C(=O)Nc3ccccc32)Nc2ccccc21`, the GI50 in experiment [1] was > 100 µM (inactive); in experiment [2], 82.6 µM (inactive); in [3], 88.3 µM (inactive); in [4] it was 18.8 µM (inactive); in experiment [5], 39.5 µM (inactive); in experiment [6], 22.9 µM (inactive). The GI50 in experiment [7] was 62.8 µM (inactive); in experiment [8], 43.1 µM (inactive); in experiment [9], 29.6 µM (inactive); in [10], 39.6 µM (inactive); in [11] it was > 100 µM (inactive); in experiment [12], > 100 µM (inactive). Besides, the GI50 in experiment [13] is 30.5 µM (inactive); in [14], 70.3 µM (inactive); in [15], 24.9 µM (inactive); in experiment [16], 38.4 µM (inactive); in experiment [17], 86.3 µM (inactive); in experiment [18] it was 62.5 µM (inactive). In addition, the GI50 in experiment [19] and in [20] was 37.9 µM (inactive) throughout.

On to `O=C(N/N=C1\C(=O)Nc2c(Cl)cc(Cl)cc21)C(=O)Nc1cccc(C(F)(F)F)c1`, for which the GI50 in experiment [1] is > 100 µM (inactive); in [2] it was 97.5 µM (inactive); in experiment [3], > 100 µM (inactive); in experiment [4] it was > 100 µM (inactive); in experiment [5] it was 34.4 µM (inactive); in experiment [6] it was > 100 µM (inactive). In addition, the GI50 was 94.4 µM (inactive) in [7]; > 100 µM (inactive) in experiment [8]; > 100 µM (inactive) in [9]; > 100 µM (inactive) in experiment [10]; > 100 µM (inactive) in experiment [11]; > 100 µM (inactive) in experiment [12]. Besides, the GI50 in experiment [13], in experiment [14], in experiment [15], in experiment [16], in [17] and in experiment [18] was > 100 µM (inactive) each time. Besides, the GI50 in experiment [19] is > 100 µM (inactive); in experiment [20], 45.5 µM (inactive).

Consider `N=C(N)NS(=O)(=O)c1ccc(Nc2c3ccccc3nc3ccc(C(=O)Nc4ccc(S(N)(=O)=O)cc4)cc23)cc1`, for which the GI50 in experiment [1], in [2], in experiment [3], in experiment [4], in experiment [5] and in experiment [6] was > 100 µM (inactive) in each case. The GI50 in experiment [7], in experiment [8], in experiment [9], in experiment [10], in [11] and in [12] was > 100 µM (inactive) throughout. For the same molecule, the GI50 in experiment [13], in experiment [14], in experiment [15], in [16], in experiment [17] and in [18] was > 100 µM (inactive) each time. The GI50 in experiment [19] and in experiment [20] was > 100 µM (inactive) in each case.

On to `O=C(O)c1cc(O)c2c(c1)C([C@@H]1c3cccc(O)c3C(=O)c3c(O)cc(C(=O)O)cc31)c1cccc(O)c1C2=O` (stereo not given in full), for which the GI50 in [1] is 99.1 µM (inactive); in experiment [2], 25.4 µM (inactive); in experiment [3], 34.7 µM (inactive); in [4] it was 66.5 µM (inactive); in [5] it was 39.3 µM (inactive); in experiment [6], 22.9 µM (inactive). Further, the GI50 in [7] is 23.5 µM (inactive); in experiment [8] it was 30.5 µM (inactive); in experiment [9] it was 24.9 µM (inactive); in [10] it was 20.4 µM (inactive); in [11] it was > 100 µM (inactive); in experiment [12], > 100 µM (inactive). In addition, the GI50 in experiment [13] was 23.7 µM (inactive); in [14], 19.5 µM (inactive); in experiment [15], 37.2 µM (inactive); in experiment [16] it was 31 µM (inactive); in experiment [17], > 10 µM (inactive); in experiment [18], 35.4 µM (inactive). Also, the GI50 in [19] is 23.2 µM (inactive); in experiment [20], 24.6 µM (inactive).

As for `Brc1ccc(C2CC3(c4ccccc4)ON=C(c4ccccc4)N3c3ccccc3S2)cc1` (stereo not given), the GI50 was > 100 µM (inactive) in experiment [1]; > 100 µM (inactive) in experiment [2]; > 100 µM (inactive) in experiment [3]; > 100 µM (inactive) in experiment [4]; 28.1 µM (inactive) in [5]; > 100 µM (inactive) in experiment [6]. The GI50 in experiment [7] was > 100 µM (inactive); in [8] it was > 100 µM (inactive); in experiment [9], > 100 µM (inactive); in [10] it was 5.87 µM (inactive); in [11], > 100 µM (inactive); in experiment [12], > 100 µM (inactive). The GI50 in experiment [13], in experiment [14], in experiment [15], in experiment [16], in [17] and in experiment [18] was > 100 µM (inactive) throughout. For the same molecule, the GI50 in experiment [19] and in experiment [20] was > 100 µM (inactive) each time.

In the case of `Cc1c2c(n(CCc3ccc(Cl)cc3)c1C)NC(c1ccccc1)C(C#N)S2(=O)=O` (stereo not given), the GI50 in experiment [1] was > 100 µM (inactive); in [2], 38.2 µM (inactive); in [3], > 72.1 µM (inactive); in experiment [4] it was > 91.2 µM (inactive); in [5] it was 3.22 µM (inactive); in experiment [6], 17.2 µM (inactive). Also, the GI50 in experiment [7] was 11.5 µM (inactive); in experiment [8], 2.08 µM (inactive); in experiment [9], 26.1 µM (inactive); in [10], 15.2 µM (inactive); in experiment [11], 22.5 µM (inactive); in [12], > 100 µM (inactive). In addition, the GI50 in experiment [13] is 20.5 µM (inactive); in [14], 34.8 µM (inactive); in experiment [15], 31.3 µM (inactive); in experiment [16] it was 36.6 µM (inactive); in experiment [17], > 79.4 µM (inactive); in experiment [18], > 45.9 µM (inactive). Further, the figures for the GI50 in experiment [19] and in [20] were 17.5 µM (inactive) and 11.1 µM (inactive), respectively.
